Data published in patent publication US4383113A, “Agricultural sulfonamides” (E. I. Du Pont de Nemours and Company, priority 1981, dated 1983).

Legend:
barnyardgrass [1] = test: Test A post-emergence; type: in vivo, Echinochloa crusgalli; design: key: 0 = no effect, 10 = maximum effect; letter = response symbol
Excerpt: (§1) The activity of these compounds was discovered in a number of greenhouse and field tests. The ratings are based on a numerical scale extending from 0=no effect, to 10=maximum effect. The accompanying descriptive symbols have the following meanings:
(§2) Seeds of crabgrass (Digitaria spp.), barnyardgrass (Echinochloa crusgalli), wild oats (Avena fatua), cassia (Cassia tora), morningglory (Ipomoea spp.), cocklebur (Xanthium spp.), sorghum, corn, soybean, rice, wheat and nutsedge tubers (Cyperus rotundus) were planted in a growth medium and treated preemergence with a nonphytotoxic solvent solution of the compounds of Table XII. Other batches of seeds and tubers for all of the foregoing weed and crop plants were planted at the same time as controls. The control plantings were untreated; i.e., neither any compound nor any solvent was applied. At the same time, cotton having five leaves (including cotyledonary ones), bush beans with the third trifoliate leaf expanding, crabgrass with two leaves, barnyardgrass with two leaves, wild oats with two leaves, cassia with three leaves (including cotyledonary ones), morningglory with four leaves (including the cotyledonary ones), cocklebur with four leaves (including the cotyledonary ones), sorghum with four leaves, corn with four leaves, soybean with two cotyledonary leaves, rice with three leaves, wheat with one leaf, and nutsedge with three-five leaves were sprayed with a nonphytotoxic solvent solution of the compounds of Table XII. Other groups of all the same weed and crop plants were sprayed with the same nonphytotoxic solvent so as to provide control plants. Preemergence and postemergence treated plants and controls were maintained in a greenhouse for sixteen days, then all treated plants were compared with their respective controls and rated visually for response to treatment.

wheat [2] = test: Test A post-emergence; type: in vivo; design: key: 0 = no effect, 10 = maximum effect; letter = response symbol
Excerpt: as §1, §2

wild oats [3] = test: Test A post-emergence; type: in vivo, Avena fatua; design: key: 0 = no effect, 10 = maximum effect; letter = response symbol
Excerpt: as §1, §2

nutsedge = test: Test A post-emergence; type: in vivo, Cyperus rotundus; design: key: 0 = no effect, 10 = maximum effect; letter = response symbol; conditions: 0.4 kg/ha
Excerpt: as §1, §2

morningglory [4] = test: Test A post-emergence; type: in vivo, Ipomoea spp.; design: key: 0 = no effect, 10 = maximum effect; letter = response symbol; conditions: 0.4 kg/ha
Excerpt: as §1, §2

crabgrass = test: Test A post-emergence; type: in vivo, Digitaria spp.; design: key: 0 = no effect, 10 = maximum effect; letter = response symbol; conditions: 0.4 kg/ha
Excerpt: as §1, §2

cocklebur [5] = test: Test A post-emergence; type: in vivo, Xanthium spp.; design: key: 0 = no effect, 10 = maximum effect; letter = response symbol; conditions: 0.4 kg/ha
Excerpt: as §1, §2

cassia [6] = test: Test A post-emergence; type: in vivo, Cassia tora; design: key: 0 = no effect, 10 = maximum effect; letter = response symbol; conditions: 0.4 kg/ha
Excerpt: as §1, §2

corn = test: Test A post-emergence; type: in vivo; design: key: 0 = no effect, 10 = maximum effect; letter = response symbol; conditions: 0.4 kg/ha
Excerpt: as §1, §2

sorghum [7] = test: Test A post-emergence; type: in vivo; design: key: 0 = no effect, 10 = maximum effect; letter = response symbol; conditions: 0.4 kg/ha
Excerpt: as §1, §2

bush bean = test: Test A post-emergence; type: in vivo, bush beans; design: key: 0 = no effect, 10 = maximum effect; letter = response symbol; conditions: 0.4 kg/ha
cocklebur [8] = test: Test A pre-emergence; type: in vivo, Xanthium spp.; design: key: 0 = no effect, 10 = maximum effect; letter = response symbol; conditions: 0.4 kg/ha
Excerpt: as §1, §2

barnyardgrass [9] = test: Test A pre-emergence; type: in vivo, Echinochloa crusgalli; design: key: 0 = no effect, 10 = maximum effect; letter = response symbol; conditions: 0.4 kg/ha
Excerpt: as §1, §2

wild oats [10] = test: Test A pre-emergence; type: in vivo, Avena fatua; design: key: 0 = no effect, 10 = maximum effect; letter = response symbol; conditions: 0.4 kg/ha
Excerpt: as §1, §2

morningglory [11] = test: Test A pre-emergence; type: in vivo, Ipomoea spp.; design: key: 0 = no effect, 10 = maximum effect; letter = response symbol; conditions: 0.4 kg/ha
Excerpt: as §1, §2

soybean = test: Test A pre-emergence; type: in vivo; design: key: 0 = no effect, 10 = maximum effect; letter = response symbol; conditions: 0.4 kg/ha
Excerpt: as §1, §2

sorghum [12] = test: Test A pre-emergence; type: in vivo; design: key: 0 = no effect, 10 = maximum effect; letter = response symbol; conditions: 0.4 kg/ha
Excerpt: as §1, §2

wheat [13] = test: Test A pre-emergence; type: in vivo; design: key: 0 = no effect, 10 = maximum effect; letter = response symbol; conditions: 0.4 kg/ha
Excerpt: as §1, §2

cassia [14] = test: Test A pre-emergence; type: in vivo, Cassia tora; design: key: 0 = no effect, 10 = maximum effect; letter = response symbol; conditions: 0.4 kg/ha
Excerpt: as §1, §2

purple nutsedge = test: Test F post-emergence; type: in vivo, Cyperus rotundus
Excerpt: Purple nutsedge tubers (Cyperus rotundus) were planted about 2 cm deep in Fallsington silt loam contained in plastic pots 10 cm in diameter. Five tubers were put in each pot. Compounds of this invention were sprayed dissolved in a non-phytotoxic solvent at a volume rate of 560 l/ha. in four different methods of treatment, i.e., soil surface spray, tuber/soil spray, soil incorporated and post-emergence. For the soil surface spray, the compounds were sprayed on the firmed soil surface immediately after planting. For the tuber/soil spray, the compounds were sprayed on the exposed tubers and subtending soil before the untreated covering soil was added. Soil incorporation treatments were mixed in the covering soil. Post-emergence treatments were sprayed on the nutsedge foliage and surrounding soil surface after the nutsedge had emerged and had reached the height of about 12 cm.
Immediately after spraying the surface spray, tuber/soil spray and soil incorporated treatments were misted with about 0.3 cm of water over a 90 minute period and then placed in the greenhouse. Post-emergence treatments were placed directly into the greenhouse and watered carefully so that treatments would not be washed from the foliage.

COC(=O)c1ccccc1S(=O)(=O)NC(=O)Nc1ncccn1 [drawing 418]
response rating (barnyardgrass [1]; 2 kg/ha): 9C | response rating (wheat [2]; 2 kg/ha): 5G | response rating (wild oats [3]; 2 kg/ha): 2G

CCC(C)OC(=O)c1ccccc1S(=O)(=O)NC(=O)Nc1nc(C)cc(OC)n1 (stereo not drawn) [drawing 424]
response rating (nutsedge): 8G | response rating (morningglory [4]): 10C | response rating (crabgrass): 0 | response rating (wild oats [3]; 0.4 kg/ha): 8G | response rating (cocklebur [5]): 9C

CCCCCCCCCCOC(=O)c1ccccc1S(=O)(=O)NC(=O)Nc1nc(C)cc(OC)n1 [drawing 428]
response rating (nutsedge): 7G | response rating (crabgrass): 0 | response rating (wheat [2]; 0.4 kg/ha): 3C | response rating (wild oats [3]; 0.4 kg/ha): 5G | response rating (cassia [6]): 5G

COc1cc(OC)nc(NC(=O)NS(=O)(=O)c2ccccc2C(=O)OC2CCCCC2)n1 [drawing 431]
response rating (morningglory [4]): 9C | response rating (corn): 7H | response rating (sorghum [7]): 8H | response rating (wheat [2]; 0.4 kg/ha): 1C | response rating (cassia [6]): 1C | response rating (cocklebur [5]): 9C

COC(=O)c1cc(Cl)ccc1S(=O)(=O)NC(=O)Nc1nc(OC)nc(OC)n1 [drawing 435]
response rating (nutsedge): 10C | response rating (barnyardgrass [1]; 0.4 kg/ha): 3G | response rating (morningglory [4]): 10C | response rating (crabgrass): 1C | response rating (corn): 9H | response rating (sorghum [7]): 8H | response rating (wheat [2]; 0.4 kg/ha): 0 | response rating (wild oats [3]; 0.4 kg/ha): 0 | response rating (cocklebur [5]): 10C

COc1cc(C)nc(NC(=O)NS(=O)(=O)c2ccccc2C(=O)CCC(C)C)n1 [drawing 449]
response rating (barnyardgrass [1]; 0.4 kg/ha): 9C | response rating (morningglory [4]): 10C | response rating (bush bean): 10D | response rating (corn): 9H

COc1nc(C)nc(NC(=O)NS(=O)(=O)c2ccccc2C(=O)OC(C)Cc2ccccc2)n1 (stereo not drawn) [drawing 457]
response rating (nutsedge): 7G | response rating (barnyardgrass [1]; 0.4 kg/ha): 9C | response rating (morningglory [4]): 10C | response rating (crabgrass): 9C | response rating (bush bean): 9C | response rating (corn): 9C | response rating (cassia [6]): 10C | response rating (cocklebur [5]): 9C

COc1nc(C)nc(NC(=O)NS(=O)(=O)c2ccccc2C(=O)OC(C)CCl)n1 (stereo not drawn) [drawing 459]
response rating (morningglory [4]): 10C | response rating (bush bean): 9C | response rating (wheat [2]; 0.4 kg/ha): 2G | response rating (wild oats [3]; 0.4 kg/ha): 3G | response rating (cocklebur [5]): 9C

COc1nc(C)nc(NC(=O)NS(=O)(=O)c2ccccc2C(=O)OCc2ccc(Cl)cc2)n1 [drawing 460]
response rating (nutsedge): 0 | response rating (morningglory [4]): 9C | response rating (wheat [2]; 0.4 kg/ha): 0 | response rating (wild oats [3]; 0.4 kg/ha): 2C

COC(=O)c1cc([N+](=O)[O-])ccc1S(=O)(=O)NC(=O)Nc1nc(C)cc(OC)n1 [drawing 462]
response rating (nutsedge): 9G | response rating (morningglory [4]): 9C | response rating (bush bean): 9C | response rating (cassia [6]): 9C | response rating (cocklebur [5]): 9C

COc1cc(OC)nc(NC(=O)NS(=O)(=O)c2ccccc2C(=O)OCCCl)n1 [drawing 487]
response rating (cocklebur [8]): 9G | response rating (barnyardgrass [9]): 9H | response rating (wild oats [10]): 9G | response rating (morningglory [11]): 9G | response rating (soybean): 9H | response rating (sorghum [12]): 9H | response rating (wheat [13]): 9G

COc1cc(C)nc(NC(=O)NS(=O)(=O)c2ccccc2C(=O)OC2CCOC2)n1 (stereo not drawn) [drawing 513]
response rating (cocklebur [8]): 9G | response rating (cassia [14]): 9G | response rating (barnyardgrass [9]): 9H | response rating (morningglory [11]): 9G | response rating (soybean): 9H | response rating (wheat [13]): 9H

COc1cc(C)nc(NC(=O)NS(=O)(=O)c2ccccc2C(=O)OCCOCCOCCCl)n1 [drawing 515]
response rating (cocklebur [8]): 9G | response rating (cassia [14]): 9C | response rating (barnyardgrass [9]): 9H | response rating (morningglory [11]): 9G | response rating (soybean): 9H

COc1cc(C)nc(NC(=O)NS(=O)(=O)c2ccccc2C(=O)NCc2ccccc2)n1 [drawing 531]
response rating (cocklebur [8]): 8G | response rating (cassia [14]): 9G | response rating (barnyardgrass [9]): 9H | response rating (wild oats [10]): 3C | response rating (morningglory [11]): 9G | response rating (soybean): 9H | response rating (wheat [13]): 9H

CNC(=O)c1ccccc1S(=O)(=O)NC(=O)Nc1nc(C)cc(OC)n1 [drawing 533]
response rating (cocklebur [8]): 9G | response rating (cassia [14]): 9G | response rating (soybean): 9H | response rating (wheat [13]): 9H

COc1cc(C)nc(NC(=O)NS(=O)(=O)c2ccccc2C(=O)SC)n1 [drawing 544]
response rating (cocklebur [8]): 9G | response rating (cassia [14]): 9G | response rating (morningglory [11]): 9G | response rating (soybean): 9H | response rating (sorghum [12]): 9H

COC(=O)c1ccccc1S(=O)(=O)NC(=O)Nc1nc(C)cc(C)n1 [drawing 591]
response rating after 4 weeks (purple nutsedge; .008 kg/ha): 9C | response rating after 4 weeks (purple nutsedge; .016 kg/ha): 9C | response rating after 4 weeks (purple nutsedge; .032 kg/ha): 10C | response rating after 4 weeks (purple nutsedge; .064 kg/ha): 10C

COC(=O)c1ccccc1S(=O)(=O)NC(=O)Nc1nc(C)cc(OC)n1 [drawing 592]
response rating after 4 weeks (purple nutsedge; .008 kg/ha): 9C | response rating after 4 weeks (purple nutsedge; .016 kg/ha): 9C | response rating after 4 weeks (purple nutsedge; .032 kg/ha): 10C | response rating after 4 weeks (purple nutsedge; .064 kg/ha): 10C

COC(=O)c1ccccc1S(=O)(=O)NC(=O)Nc1nc(OC)cc(OC)n1 [drawing 593]
response rating after 4 weeks (purple nutsedge; .004 kg/ha): 8C | response rating after 4 weeks (purple nutsedge; .008 kg/ha): 10C | response rating after 4 weeks (purple nutsedge; .016 kg/ha): 10C | response rating after 4 weeks (purple nutsedge; .032 kg/ha): 9C | response rating after 4 weeks (purple nutsedge; .064 kg/ha): 10C

COC(=O)c1ccccc1S(=O)(=O)NC(=O)Nc1nc(C)nc(OC)n1 [drawing 594]
response rating after 4 weeks (purple nutsedge; .004 kg/ha): 0 | response rating after 4 weeks (purple nutsedge; .008 kg/ha): 2G | response rating after 4 weeks (purple nutsedge; .016 kg/ha): 2G

COC(=O)c1ccccc1S(=O)(=O)NC(=O)Nc1nc(OC)nc(OC)n1 [drawing 595]
response rating after 4 weeks (purple nutsedge; .004 kg/ha): 0 | response rating after 4 weeks (purple nutsedge; .008 kg/ha): 0 | response rating after 4 weeks (purple nutsedge; .032 kg/ha): 3G

CCOC(=O)c1ccccc1S(=O)(=O)NC(=O)Nc1nc(OC)cc(OC)n1 [drawing 598]
response rating after 4 weeks (purple nutsedge; .008 kg/ha): 10C | response rating after 4 weeks (purple nutsedge; .032 kg/ha): 10C | response rating after 4 weeks (purple nutsedge; .125 kg/ha): 10C | response rating after 4 weeks (purple nutsedge; .25 kg/ha): 10C

CCCCOC(=O)c1ccccc1S(=O)(=O)NC(=O)Nc1nc(C)cc(OC)n1 [drawing 599]
response rating after 4 weeks (purple nutsedge; .125 kg/ha): 8C

COc1cc(C)nc(NC(=O)NS(=O)(=O)c2ccccc2C(=O)OC(C)C)n1 [drawing 601]
response rating after 4 weeks (purple nutsedge; .008 kg/ha): 10C | response rating after 4 weeks (purple nutsedge; .032 kg/ha): 10C | response rating after 4 weeks (purple nutsedge; .125 kg/ha): 10C | response rating after 4 weeks (purple nutsedge; .25 kg/ha): 10C

COc1cc(OC)nc(NC(=O)NS(=O)(=O)c2ccccc2C(=O)OC(C)C)n1 [drawing 602]
response rating after 4 weeks (purple nutsedge; .008 kg/ha): 10C | response rating after 4 weeks (purple nutsedge; .032 kg/ha): 10C | response rating after 4 weeks (purple nutsedge; .125 kg/ha): 10C | response rating after 4 weeks (purple nutsedge; .25 kg/ha): 10C

COC(=O)c1cc(Cl)ccc1S(=O)(=O)NC(=O)Nc1nc(OC)cc(OC)n1 [drawing 605]
response rating after 4 weeks (purple nutsedge; .008 kg/ha): 10C | response rating after 4 weeks (purple nutsedge; .032 kg/ha): 10C | response rating after 4 weeks (purple nutsedge; .125 kg/ha): 10C
